For orientation: melting point means the temperature of the solid-liquid transition.

Turning to `CS(=O)(=O)Nc1ccc(Cl)c(F)c1`, the melting point fell in the range of 109 to 111 °C. Compound `Cc1cnc(C2=NC(C)(C(C)C)C(=O)N2)c(C(O)c2ccc(C)s2)c1` (configuration not stated) returned a melting point of 147 to 148 °C. `COc1ccc(-n2nc(Sc3cc(Cl)cc(Cl)c3)c(C)c(C#N)c2=O)cc1` yielded a melting point of 195 to 197 °C. With `CCCCCC(=O)NCc1ccc(C(=O)O)cc1`, the melting point was in the range of 178 to 179 °C. Consider `COC(=O)c1cc(O)c2cc3c(O)cc(C(=O)OC)nc3c(C)c2n1`, for which the melting point amounted to 296 °C. The compound `COC(=O)C1=C(C=O)NC(C)=C(C(=O)OCC(C)C)C1c1ccccc1C#N` (configuration not stated) gave a melting point of 152 to 154 °C. Turning to `CCCCCCc1ccc(-n2c(-c3ccc(C)cc3)ccc2-c2ccc(C)cc2)cc1`, the melting point is 147 to 148 °C. Take `O=C(O)C[C@@H]1Cc2cccc3c2[C@@H](CCC3)C1` (relative stereo): the melting point lay in the range of 115 to 116 °C. In turn, `COc1ccc2c(c1)OCC(n1ccnc1)C2=O` (configuration not stated) gave a melting point of 151 to 155 °C. With `CC(C)c1nc(-c2ccc(/C=C/C3(O)CN4CCC3CC4)cc2)no1` (configuration not stated), the melting point was 142 to 144 °C. With `CC(Sc1nc(N)cc(Cl)n1)c1cc2ccccc2cn1` (configuration not stated) the figure was 179 to 180 °C; with `N#CC(C(=O)c1ccc(Cl)cc1)=C1CCC(C(=O)O)N1` (configuration not stated), 134 to 136 °C. Consider `CCNC(=O)[C@H](C)C[C@H](O)[C@H](CC1CCCCC1)NC(=O)OC(C)(C)C`, for which the melting point is 126 to 127 °C. With `COc1ccc2cc(C(=O)C(C)N3CCN(Cc4ccccc4)CC3)ccc2c1` (configuration not stated) the figure was 149 to 150 °C. Regarding `CN(C)CCCC1(O)c2ccccc2OC12CCCCCC2` (configuration not stated), the melting point lay within 96 to 98.5 °C. With `CCC(O)(c1ccc(OCc2ccccc2)cc1)c1cccc(Cl)c1` (configuration not stated), the melting point is 52 to 53 °C. Turning to `CCCc1c(OCCCS(=O)(=O)c2ccc(C(=O)CCCCC(=O)O)cc2)ccc(C(C)=O)c1O`, the melting point is 138 to 140 °C. `CC(C)(C)NC(=O)[C@@H]1CCCN1C(=O)[C@@H](O)[C@@H](C(=O)[C@H](CC(N)=O)NCc1cnc2ccccc2n1)C(N)c1ccccc1` (some centres not stated) displayed a melting point of 116 to 119 °C. Consider `COC(=O)C1CCc2c([nH]c3ccc(Cl)cc23)C1` (configuration not stated), for which the melting point was in the range of 175 to 176 °C. In the case of `Nc1nc(OCc2ccccc2)c2ncn(CC(=O)O)c2n1`, the melting point is 159 to 165 °C. In the case of `Clc1cc(Cl)nc(NC2CCCC2)n1`, the melting point fell in the range of 48 to 52 °C. Compound `COc1ccc(C(=O)C2=C(O)C(=O)N(c3nnc(C)s3)C2c2cccc(C(=O)O)c2)cc1` (configuration not stated) gave a melting point of 281 °C. In the case of `CC1CC(=O)NN=C1c1ccc(NC(=O)CCNCC(O)COc2ccc(CCOCC3CC3)cc2)cc1` (configuration not stated), the melting point is 54 to 56 °C.

Turning to `O=C(O)c1nc(-c2ccccc2)n2c1CN=C(c1ccccc1F)c1cc(Cl)ccc1-2`, the melting point is 267 to 269 °C.

In turn, `CCSC(C)C(=O)N(CC)c1c[nH]nc1Cl` (configuration not stated) yielded a melting point of 78 to 80 °C.

On to `CCCCN(CCCC)C(=O)c1c(C)n(CCc2ccccc2)c2ccc(O)c(CN3CCCCC3)c12`, for which the melting point fell in the range of 105 to 107 °C. `COC(=O)c1coc(-c2ncn3c2CN(C)C(=O)c2sccc2-3)n1` had a melting point of 254 to 255 °C. For the compound `Cc1cc(C)c2nc(C3CC3)n(Cc3ccc(C4(C(=O)O)CCCCC4)s3)c2n1`, the melting point is 175 to 176 °C. In turn, `OC1(c2ccc(Cl)cc2)CN(C(c2ccccc2)c2ccccc2)C1` yielded a melting point of 108 °C. As to `O=C1CCC(c2ccc3c(c2)CC(NC(=O)Nc2ccccc2)C3)=NN1` (configuration not stated), the melting point lay within 249 to 251 °C.

`Cn1nc(-c2nc(S(C)(=O)=O)c(N)nc2-c2ccccc2)ccc1=O` came in with a melting point of 231 to 233 °C. In the case of `O=c1[nH][nH]c(=S)n(CCO)c1=O` it was 230 °C. As to `O=c1c(O)c(-c2ccc(OCc3ccccc3)c(OCc3ccccc3)c2)oc2cc(OCc3ccccc3)ccc12`, the melting point was in the range of 120 to 121 °C. Consider `COc1ccc(C2(c3ccc(OC)cc3)CCN(CC[C@H]3CN(C)[C@@H]4Cc5c[nH]c6cccc(c56)[C@@]4(OC)C3)CC2)cc1`, for which the melting point fell in the range of 129 to 136 °C. For `NC(=O)CCN1CCC(CNc2ccc(Cl)cc2C(=O)Nc2ccc(Cl)cn2)CC1`, the melting point fell in the range of 193 to 196 °C. For `CCCCCCC(O)C(=O)NCCS` (configuration not stated), the melting point was in the range of 83 to 84 °C. On to `CCOC(=O)C(NC(=O)CSC)C(=O)OCC`, for which the melting point fell in the range of 56 to 58 °C. In turn, `COc1cc2c(Nc3cc(O)c(C)cc3F)ncnc2cc1O` showed a melting point of 276 to 278 °C.

`O=C(O)c1c(C=C2CC2)c2ccccc2n1Cc1cccc(C(F)(F)F)c1` registered a melting point of 148 to 150 °C. Compound `COC=C(C(=O)OC)c1ccccc1CON=C(C)c1noc2ccccc12` had a melting point of 97 to 98 °C. Turning to `CC(C)(C)OC(=O)CONC(=O)c1ccc(C(=O)C(C)(C)C)cc1`, the melting point lay within 87 to 88 °C. With `CC(C)Nc1nc(S(C)(=O)=O)nc(Cl)c1-c1c(F)cccc1Cl` the figure was 145 to 149 °C; with `O=C(OCc1ccc(Cl)cc1)c1ncn2c1[C@@H]1CCCN1C(=O)c1c(Cl)cccc1-2`, 183 to 184 °C; with `CC(C)c1ccc(N(Cc2ccc(N(C)C)cc2)C(=O)C2CCc3c(O)cccc32)cc1` (configuration not stated), 158 to 160 °C. For the compound `Oc1cccc2c1CC1OC1C2` (configuration not stated), the melting point is 143 to 146 °C. On to `COc1ccc(C2(C#Cc3ccc(Cl)cc3)CCC(=O)CC2)cc1OC1CCCC1`, for which the melting point fell in the range of 104 to 105 °C. In turn, `COP(=O)(CC(O)c1c(C)cc(C)cc1-c1ccc(F)c(C)c1)OC` (configuration not stated) returned a melting point of 98 to 100 °C. `Cc1ccccc1C1c2cc(Cl)ccc2OC(=O)C1C(=O)N(C)Cc1cc(C(F)(F)F)cc(C(F)(F)F)c1` (configuration not stated) gave a melting point of 148 to 149 °C. For `Cn1ccnc1Sc1ccc(Nc2c(C#N)cnc3cc(N4CCC(N5CCCC5)CC4)ccc23)cc1Cl`, the melting point was 125 to 130 °C. The compound `Cn1ncc(-c2ccc3c(c2)c(C2=CCN(CCN4CCNC4=O)CC2)cn3-c2ccc(F)cc2)n1` gave a melting point of 175 to 177 °C. In the case of `CC1(C(F)(F)F)CC(=O)CC(=O)C1` it was 150 to 152 °C; in that of `CC1C(c2ccccc2)OP(N)(=O)N1C` (configuration not stated), 170 to 172 °C; in that of `CC(c1oc2ccccc2c(=O)c1-c1cccc(F)c1)n1nc(-c2ccccc2CO)c2c(N)ncnc21` (configuration not stated), 185 to 189 °C. The compound `CCCCCCCCCCCCS(=O)(=O)Nc1cc(NC(=O)c2ccc(F)c(F)c2)ccc1OC` came in with a melting point of 132 °C. The compound `O=C(O)C1Cc2c(n(Cc3ccccc3)c3ccccc23)CN1` (configuration not stated) displayed a melting point of 252 to 253 °C.

As to `CNS(=O)(=O)c1sccc1CCl`, the melting point is 52 to 53 °C. In turn, `S=C1NC2(CCCCC2)NC12CCCCC2` registered a melting point of 229 °C. `Cc1ccc(C(=O)N[C@H](C)C(N)=O)cc1-n1c(C)cc(OCc2ccccc2CNC(=O)Nc2cc(C(C)(C)C)nn2-c2ccc(O)c(Cl)c2)c(Cl)c1=O` had a melting point of 192 to 193 °C.

Turning to `O=C(NCCCCN1CCC(c2csc3ccccc23)CC1)c1ccc(-c2ccc(C(F)(F)F)cc2)cc1`, the melting point was determined as 264 °C. `O=C(O)c1cn(C2CC2)c2c(F)c(N3CCNCC3)c(F)c(F)c2c1=O` showed a melting point of 208 to 213 °C. The compound `O=C(O)Cc1ccc([N+](=O)[O-])cc1CC(=O)O` yielded a melting point of 187 to 188 °C. `CN(C)c1ccc(C=CC(O)Cc2ccccc2)cc1` (configuration not stated) displayed a melting point of 158 to 162 °C.

For the origin of these results see a melting point compilation (Tetko et al.; mined from patent text by program, amines drawn as free bases though some values may be those of a salt).
